Measured values reported in patent US11667638B2, “4-substitued cytisine analogues” (The University of Bristol, priority 2016, dated 2023).

Columns and labels:
α4β2 nAChR = α4β2 nAChR (Homo sapiens (Human), UniProt P17787+P43681); assay type: binding; details: ratio of Ki values
Procedure: HEK 293 cells were grown in Dulbecco's modified Eagle medium supplemented with 10% fetal bovine serum, 1% L-Glutamine, 100 units/ml penicillin G, and 100 μg/streptomycin in a humidified atmosphere containing 10% CO2. The cDNAs encoding α3 and β4 or α4 and β2 (were transfected into the HEK 293 cells at 30% confluency). The cell transfections were carried out in 100 mm Petri dishes using 30 μL of JetPEI™ (Polypus, France) (1 mg/ml, pH 7.2) and 3 μg of each cDNA. After 24 h transfection, the cells were collected, washed with PBS by centrifugation, and used for binding analysis.
[^3H]-epibatidine saturation binding experiments to HEK transfected α3β4 or α4β2 receptors were performed by means of overnight incubation at 4° C. at concentrations ranging from 0.005 to 1 nM in a buffer containing 50 mM Tris-HCl, pH 7, 150 mM NaCl, 5 mM KCl, 1 mM MgCl2, 2.5 mM CaCl2 and 2 mg/ml BSA, in the presence (aspecific binding) or absence (total binding) of 100 nM cold epibatidine. Specific ligand binding was defined as total binding minus the binding in the presence of 100 nM cold epibatidine.
After incubation, the membranes of HEK cells transfected with α4β2* or α3β4 subtypes were washed by filtration on GFC filters with ice-cold PBS. The GFC filters were pre-soaked in polyethylenimine and filtered through an harvester apparatus. [^3H]-epibatidine binding was determined by means of liquid scintillation counting in a beta counter.
The ligand binding data were analyzed by means of nonlinear regression using Prism version 5 (GraphPad Software, Inc., La Jolla, Calif.). The Ki values were calculated from the experimental IC50 values using the Cheng-Prusoff equation for a single population of competitive sites: Ki=IC50/[1+(L/Kd)], where L is the concentration of radioligand used in each experiment and the Kd values were determined by saturation binding experiment. All of the assays were performed in duplicate and repeated at least two-three times.

α3β4 nAChRs = α3β4 nAChRs (Homo sapiens (Human), UniProt P30926+P32297); experiment: Maximal gating efficacy on α3β4 nAChRs in Xenopus oocytes, two electrode voltage clamp; assay type: cell-based; details: maximal current relative to 1 mM ACh
Procedure: (§1) Compounds of the invention were tested for effects on the function of human α4β2, α3β4 and α7 nicotinic acetylcholine receptors (nAChRs) expressed heterologously in Xenopus oocytes. […] Expression in oocytes was obtained as follows: pCI (Promega, UK) plasmid containing human α4, β2, β4 or α7 complementary DNA were injected as previously described (Moroni et al., 2006). To express (α4)3(β2)2 nACh receptors, a mixture of 10α4:1β2 cDNAs was injected into the nucleus of oocytes, whereas for (α4)2(β2)3 receptors the cDNA ratio injected was 1α4:10β2.
(§2) Functional studies: Recordings were performed manually using a Geneclamp amplifier (Molecular Devices, USA) or using an automated HiClamp system. In both cases the oocytes were impaled with two electrodes filled with 3 M KCl and the cells were held at −60 mV throughout the experiments.
(§3) Oocyte isolation and two-electrode voltage-clamp recordings on oocytes were carried out as previously described (Moroni et al., 2006; Carbone et al., 2009). […] A minimum interval of 5 min was allowed between agonist applications to ensure reproducible recordings. Oocytes were exposed to increasing concentrations of the compounds until no further increases in the response amplitude were obtained. This concentration was taken as the concentration that causes maximal responses on the receptors tested. The data summarised in Tables 1-4 were obtained from at least 5 experiments carried out on oocytes obtained from at least three different donors.
Maximal gating efficacy of the compounds on α3β4 nAChRs: The concentration of the compounds causing maximal activation of α3β4 nAChRs expressed heterologously in Xenopus oocytes was determined using two electrode voltage clamping.

α7 nAChRs = α7 nAChRs (Homo sapiens (Human), UniProt P36544); assay type: cell-based; details: compounds at 100 μM, relative to 1 mM ACh
Procedure: as §1, §2, §3

(α4)2(β2)3 nAChRs = (α4)2(β2)3 nAChRs (Homo sapiens (Human), UniProt P17787+P43681); experiment: Maximal gating efficacy on (α4)2(β2)3 nAChRs in Xenopus oocytes, two electrode voltage clamp; assay type: cell-based; details: (α4)2(β2)3, high sensitivity receptors; maximal current relative to 1 mM ACh
Procedure: as §1, §2, §3
Maximal gating efficacy of compounds on (α4)2(β2)3 receptors (high sensitivity receptors): The concentration of the compounds causing maximal activation of the (α4)2(β2)3 nAChRs expressed heterologously in Xenopus oocytes was determined using two electrode voltage clamping.

(α4)3(β2)2 nAChRs = (α4)3(β2)2 nAChRs (Homo sapiens (Human), UniProt P17787+P43681); experiment: Maximal gating efficacy on (α4)3(β2)2 nAChRs in Xenopus oocytes, two electrode voltage clamp; assay type: cell-based; details: (α4)3(β2)2, low sensitivity stoichiometry; maximal current relative to 1 mM ACh
Procedure: as §1, §2, §3
Maximal gating efficacy of the compounds: The concentration of the compounds of the invention causing maximal activation of the (α4)3(β2)2 nAChRs expressed heterologously in Xenopus oocytes was determined using two electrode voltage clamping.

Sequence of α3β4 nAChRs (P32297 32-505): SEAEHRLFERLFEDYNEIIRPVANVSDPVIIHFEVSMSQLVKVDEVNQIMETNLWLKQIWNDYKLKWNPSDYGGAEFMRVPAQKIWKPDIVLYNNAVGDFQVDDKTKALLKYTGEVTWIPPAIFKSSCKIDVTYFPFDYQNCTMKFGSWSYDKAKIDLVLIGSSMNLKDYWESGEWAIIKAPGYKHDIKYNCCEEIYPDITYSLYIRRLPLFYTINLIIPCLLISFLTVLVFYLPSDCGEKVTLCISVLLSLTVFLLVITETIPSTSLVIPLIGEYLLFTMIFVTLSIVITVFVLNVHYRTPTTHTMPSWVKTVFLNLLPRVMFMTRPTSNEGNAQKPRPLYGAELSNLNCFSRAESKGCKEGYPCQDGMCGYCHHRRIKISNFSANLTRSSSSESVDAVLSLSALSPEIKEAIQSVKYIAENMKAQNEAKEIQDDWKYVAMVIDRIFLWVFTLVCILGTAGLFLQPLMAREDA
Sequence of α3β4 nAChRs (P30926 22-498): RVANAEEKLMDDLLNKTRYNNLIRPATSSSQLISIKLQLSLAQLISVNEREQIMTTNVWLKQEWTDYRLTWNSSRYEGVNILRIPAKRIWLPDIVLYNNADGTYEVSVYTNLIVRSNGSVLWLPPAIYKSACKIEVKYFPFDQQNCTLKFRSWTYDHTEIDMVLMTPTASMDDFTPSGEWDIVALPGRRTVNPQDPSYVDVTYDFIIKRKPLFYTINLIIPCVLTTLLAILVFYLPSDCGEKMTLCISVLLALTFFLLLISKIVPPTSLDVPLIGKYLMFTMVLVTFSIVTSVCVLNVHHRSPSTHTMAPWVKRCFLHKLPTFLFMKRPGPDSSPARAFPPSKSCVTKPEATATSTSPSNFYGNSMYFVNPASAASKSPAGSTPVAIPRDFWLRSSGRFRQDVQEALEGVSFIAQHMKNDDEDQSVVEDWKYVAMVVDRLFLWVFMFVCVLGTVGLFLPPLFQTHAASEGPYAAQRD
Sequence of α7 nAChRs (P36544 23-502): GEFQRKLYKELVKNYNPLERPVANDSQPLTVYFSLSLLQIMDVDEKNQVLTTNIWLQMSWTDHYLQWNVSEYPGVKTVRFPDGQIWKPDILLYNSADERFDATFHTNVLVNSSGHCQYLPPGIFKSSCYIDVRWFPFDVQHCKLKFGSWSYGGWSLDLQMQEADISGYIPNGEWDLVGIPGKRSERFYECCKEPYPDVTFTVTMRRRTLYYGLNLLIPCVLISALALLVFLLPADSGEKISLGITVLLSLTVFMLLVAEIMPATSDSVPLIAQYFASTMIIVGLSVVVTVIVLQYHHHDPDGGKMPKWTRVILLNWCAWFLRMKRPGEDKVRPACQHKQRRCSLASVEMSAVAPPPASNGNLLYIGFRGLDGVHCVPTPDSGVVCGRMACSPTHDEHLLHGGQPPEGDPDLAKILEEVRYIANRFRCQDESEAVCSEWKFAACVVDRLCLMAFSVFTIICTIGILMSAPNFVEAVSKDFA
Sequence of (α4)2(β2)3 nAChRs (P43681 29-627): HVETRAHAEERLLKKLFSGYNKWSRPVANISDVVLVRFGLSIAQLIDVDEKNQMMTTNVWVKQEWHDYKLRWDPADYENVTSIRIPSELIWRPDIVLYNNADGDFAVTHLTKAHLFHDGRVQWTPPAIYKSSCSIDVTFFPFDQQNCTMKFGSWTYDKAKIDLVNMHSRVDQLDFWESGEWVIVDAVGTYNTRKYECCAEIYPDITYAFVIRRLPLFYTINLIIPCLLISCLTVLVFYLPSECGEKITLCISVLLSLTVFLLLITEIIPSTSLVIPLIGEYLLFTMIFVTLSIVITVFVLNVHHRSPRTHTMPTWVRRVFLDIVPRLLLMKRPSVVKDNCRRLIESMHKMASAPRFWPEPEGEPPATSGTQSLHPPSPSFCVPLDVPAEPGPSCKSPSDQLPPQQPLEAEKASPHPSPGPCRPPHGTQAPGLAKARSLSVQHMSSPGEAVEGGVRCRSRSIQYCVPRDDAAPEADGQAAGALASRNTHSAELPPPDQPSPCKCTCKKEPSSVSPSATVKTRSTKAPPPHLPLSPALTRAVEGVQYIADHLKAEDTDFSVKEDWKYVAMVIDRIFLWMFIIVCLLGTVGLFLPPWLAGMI
Sequence of (α4)2(β2)3 nAChRs (P17787 26-502): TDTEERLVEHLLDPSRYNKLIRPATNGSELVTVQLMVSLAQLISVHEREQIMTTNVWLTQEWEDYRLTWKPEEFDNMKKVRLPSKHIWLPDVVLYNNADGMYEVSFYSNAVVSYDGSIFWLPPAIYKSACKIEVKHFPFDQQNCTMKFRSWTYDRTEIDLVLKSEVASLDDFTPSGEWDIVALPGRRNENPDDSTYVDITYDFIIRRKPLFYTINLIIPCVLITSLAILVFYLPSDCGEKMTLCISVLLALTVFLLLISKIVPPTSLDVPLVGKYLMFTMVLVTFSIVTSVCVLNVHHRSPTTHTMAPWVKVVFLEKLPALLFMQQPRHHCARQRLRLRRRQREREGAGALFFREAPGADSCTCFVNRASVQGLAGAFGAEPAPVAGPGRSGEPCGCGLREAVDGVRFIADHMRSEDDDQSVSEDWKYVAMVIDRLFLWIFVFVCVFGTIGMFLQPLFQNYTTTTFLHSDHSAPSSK
Sequence of α4β2 nAChR (P43681 29-627 limits assumed): as the sequence (P43681 29-627) above
Sequence of α4β2 nAChR (P17787 26-502 limits assumed): as the sequence (P17787 26-502) above
Sequence of (α4)3(β2)2 nAChRs (P43681 29-627): as the sequence (P43681 29-627) above
Sequence of (α4)3(β2)2 nAChRs (P17787 26-502): as the sequence (P17787 26-502) above

Structure (SMILES) | Ratio α3β4/α4β2 (α4β2 nAChR) | Relative efficacy (ACh) (α3β4 nAChRs) | Relative efficacy (ACh) (α7 nAChRs) | Relative efficacy (ACh) ((α4)2(β2)3 nAChRs) | Relative efficacy (ACh) ((α4)3(β2)2 nAChRs)
Cc1cc2n(c(=O)c1)CC1CNC[C@@H]2C1.Cl (single isomer, unassigned; (-)) [Compound 110, (−)4-Methylcytisine] | 864.3 | 0.0708 ± 0.059 | 0.0017 ± 0.0024 | 0.041 ± 0.004 | 0.014 ± 0.007
CCc1cc2n(c(=O)c1)CC1CNC[C@@H]2C1.Cl (single isomer, unassigned; (-)) [Compound 118, (−)4-Ethylcytisine] | 1901.3 | 0.086 ± 0.106 | 0.0057 ± 0.0028 | 0.062 ± 0.025 | 0.036 ± 0.055
Cl.O=c1cc(CO)cc2n1CC1CNC[C@@H]2C1 (single isomer, unassigned; (-)) [Compound 122, (−)4-(Hydroxymethyl)cytisine] | 73.0 | 0.015 ± 0.020 | 0.0067 ± 0.0015 | 0.025 ± 0.000 | 0.058 ± 0.057
C#Cc1cc2n(c(=O)c1)CC1CNC[C@@H]2C1.Cl (single isomer, unassigned; (-)) [Compound 127, (−)4-(acetylenyl)cytisine] | 710.5 | 0.165 ± 0.064 | 0.17 ± 0.03 | 0.009 ± 0.0009 | 0.071 ± 0.009
N#Cc1cc2n(c(=O)c1)CC1CNC[C@@H]2C1 (single isomer, unassigned; (-)) [Compound 140, (−)4-Cyanocytisine] | 199.5 | 0.172 ± 0.064 |  | 0.026 ± 0.036 | 0.050 ± 0.027
CC(=O)NCc1cc2n(c(=O)c1)CC1CNC[C@@H]2C1.Cl (single isomer, unassigned; (-)) [Compound 148] | 204.8 | 0.034 ± 0.038 |  | 0.015 ± 0.021 | 0.041 ± 0.057
Cl.O=c1c(C(F)(F)F)c(Br)cc2n1CC1CNC[C@@H]2C1 (single isomer, unassigned; (-)) [Compound 162, (−)3-(Trifluoromethyl)-4-bromocytisine] | 136.4 | 0.250 ± 0.077 |  | 0.042 ± 0.060 | 0.072 ± 0.026
CN(Cc1cc2n(c(=O)c1)CC1CNC[C@@H]2C1)Cc1cc2n(c(=O)c1)CC1CNC[C@@H]2C1 (stereo in doubt) [Compound 156, Methylamino bis(cytisine) derivative] | 207.3 | 0.012 ± 0.007 |  | No response | 0.052 ± 0.007
c1cnc2cc3c(cc2n1)[C@@H]1CNC[C@H]3C1 [Varenicline, reference compound] |  | 0.51 ± 0.09 | 0.96 ± 0.03 | 0.14 ± 0.03 | 0.40 ± 0.09
